Experimental data taken from patent US20230203098A1, “HUMAN TRANSFERRIN RECEPTOR BINDING PEPTIDE” (priority 2020, published 2023).
pKd: −log10 of the molar value. Read-outs that look alike come from different tables or passages of the source. Where a SMILES comes first, the peptide text is derived from it. Bridges are numbered along the chain shown (N, C = ends). [ ]: non-standard residue; d: D form. The star is where a group is joined. X2 = O=C(O)c1cc(C(=O)*)ccc1-c1c2ccc(=O)cc-2oc2cc(O)ccc12; PEG12 = NCCOCCOCCOCCOCCOCCOCCOCCOCCOCCOCCOCCOCCC(=O)O; NMePhe(3-Cl) = CN[C@@H](Cc1cccc(Cl)c1)C(=O)O; NMeW = CN[C@@H](Cc1c[nH]c2ccccc12)C(=O)O; NMeY = CN[C@@H](Cc1ccc(O)cc1)C(=O)O; NMeF = CN[C@@H](Cc1ccccc1)C(=O)O; Chg = N[C@H](C(=O)O)C1CCCCC1; PEG4 = NCCOCCOCCOCCOCCC(=O)O; Dap = NC[C@H](N)C(=O)O

Target: transferrin receptor (hTfR) (Homo sapiens, UniProt P02786)
Test: Intermolecular interaction evaluation test between transferrin receptor (hTfR) and peptide by surface plasmon resonance (SPR)
Format: binding
In short: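 hTfR captured on Ni-NTA chip then amine-coupled; peptides run single-cycle kinetics at 5–100 nM in 10 mM HEPES pH 8.0, 150 mM NaCl, 0.05% Tween 20, 0.1% BSA, 1.0% DMSO. KD from least-squares curve fitting of sensorgrams.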

[1] = SPR, linker and payload (FITC, VivoTag) conjugates, read-out: KD
[2] = SPR, peptides, linker-added peptides and FITC conjugates, Patent ID 203-230, read-out: KD
[3] = binding to hTfR by SPR, Table 2 peptides, read-out: KD value (SPR) class

Sequence of transferrin receptor (hTfR) (P02786 whole entry): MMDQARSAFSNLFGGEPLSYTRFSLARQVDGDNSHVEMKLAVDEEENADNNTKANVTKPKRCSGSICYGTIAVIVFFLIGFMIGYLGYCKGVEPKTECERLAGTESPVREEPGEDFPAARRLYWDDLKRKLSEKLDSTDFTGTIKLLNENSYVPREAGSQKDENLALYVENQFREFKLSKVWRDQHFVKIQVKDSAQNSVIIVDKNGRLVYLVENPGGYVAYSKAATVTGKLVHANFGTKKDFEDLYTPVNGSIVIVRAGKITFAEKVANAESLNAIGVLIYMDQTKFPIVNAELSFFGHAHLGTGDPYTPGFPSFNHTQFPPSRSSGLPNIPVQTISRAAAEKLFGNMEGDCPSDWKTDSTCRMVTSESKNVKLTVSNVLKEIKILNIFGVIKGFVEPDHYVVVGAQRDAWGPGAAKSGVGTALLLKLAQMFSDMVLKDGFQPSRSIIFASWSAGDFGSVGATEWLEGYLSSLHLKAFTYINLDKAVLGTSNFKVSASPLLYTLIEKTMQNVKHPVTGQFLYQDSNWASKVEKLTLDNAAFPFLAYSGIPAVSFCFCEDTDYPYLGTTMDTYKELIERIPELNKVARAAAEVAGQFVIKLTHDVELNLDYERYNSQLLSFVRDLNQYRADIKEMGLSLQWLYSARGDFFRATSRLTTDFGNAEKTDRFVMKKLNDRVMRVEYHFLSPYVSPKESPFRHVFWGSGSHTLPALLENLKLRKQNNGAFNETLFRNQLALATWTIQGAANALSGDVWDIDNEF

CC[C@H](C)[C@@H]1NC(=O)[C@H](Cc2ccc(O)cc2)NC(=O)[C@H](Cc2ccc(O)cc2)NC(=O)[C@H](CC(N)=O)NC(=O)[C@H](Cc2c[nH]c3ccccc23)NC(=O)[C@H](C(C)C)NC(=O)[C@H](Cc2ccccc2)NC(=O)[C@H](C(C)C)NC(=O)[C@H](C)N(C)C(=O)CSC[C@@H](C(=O)NCCOCCOCCOCCOCCC(=O)N[C@@H](CNC(=O)c2ccc(-c3c4ccc(=O)cc-4oc4cc(O)ccc34)c(C(=O)O)c2)C(N)=O)NC(=O)[C@H](Cc2ccc(O)cc2)N(C)C(=O)[C@H](Cc2ccc(O)cc2)NC(=O)[C@H](CCCNC(=N)N)NC(=O)[C@H](CCCNC(=N)N)NC(=O)[C@H]([C@@H](C)CC)NC1=O [compound 161]
pKd [1]: 7.00 to 9.00

CC[C@H](C)[C@@H]1NC(=O)[C@H](Cc2ccc(O)cc2)NC(=O)[C@H](Cc2ccc(O)cc2)NC(=O)[C@H](CC(N)=O)NC(=O)[C@H](Cc2c[nH]c3ccccc23)NC(=O)[C@H](C(C)C)NC(=O)[C@H](Cc2ccccc2)N(C)C(=O)[C@H](C(C)C)NC(=O)[C@H](C)NC(=O)CSC[C@@H](C(=O)NCCOCCOCCOCCOCCOCCOCCOCCOCCOCCOCCOCCOCCC(N)=O)NC(=O)[C@H](Cc2ccc(O)cc2)N(C)C(=O)[C@H](C)NC(=O)[C@H](CCCNC(=N)N)NC(=O)[C@H](CCCNC(=N)N)NC(=O)[C@H]([C@@H](C)CC)NC1=O [compound 123]
pKd (SPR, hTfR No. 894 variants with PEG12c linker (Table 2), read-out: KD): 7.00 to 9.00

CC[C@H](C)[C@@H]1NC(=O)[C@H](Cc2ccc(O)cc2)NC(=O)[C@H](Cc2ccc(O)cc2)NC(=O)[C@H](CC(N)=O)NC(=O)[C@H](Cc2c[nH]c3ccccc23)NC(=O)[C@H](C(C)C)NC(=O)[C@H](Cc2ccccc2)NC(=O)[C@H](CCC(=O)O)NC(=O)[C@H](C)NC(=O)CSC[C@@H](C(N)=O)NC(=O)[C@H](Cc2ccc(O)cc2)N(C)C(=O)[C@H](Cc2ccc(O)cc2)NC(=O)[C@H](CCCNC(=N)N)NC(=O)[C@H](CCCNC(=N)N)NC(=O)[C@H]([C@@H](C)CC)NC1=O [compound 219]
pKd [2]: 7.00 to 9.00

CC[C@H](C)[C@@H]1NC(=O)[C@H](Cc2ccc(O)cc2)NC(=O)[C@H](Cc2ccc(O)cc2)NC(=O)[C@H](CC(N)=O)NC(=O)[C@H](Cc2c[nH]c3ccccc23)NC(=O)[C@H](C(C)C)NC(=O)[C@H](Cc2ccccc2)NC(=O)[C@H](C(C)C)NC(=O)[C@H](C)NC(=O)CSC[C@@H](C(N)=O)NC(=O)[C@H](Cc2ccc(O)cc2)N(C)C(=O)[C@H](Cc2ccc(O)cc2)NC(=O)[C@H](CCC(=O)O)NC(=O)[C@H](CCCNC(=N)N)NC(=O)[C@H]([C@@H](C)CC)NC1=O [compound 257]
pKd [3]: 7.00 to 9.00

CC[C@H](C)[C@@H]1NC(=O)[C@H](Cc2ccc(OCCN)cc2)NC(=O)[C@H](Cc2ccc(O)cc2)NC(=O)[C@H](CC(N)=O)NC(=O)[C@H](Cc2c[nH]c3ccccc23)NC(=O)[C@H](C(C)C)NC(=O)[C@H](Cc2ccccc2)N(C)C(=O)[C@H](C(C)C)NC(=O)[C@H](C)NC(=O)CSC[C@@H](C(N)=O)NC(=O)[C@H](Cc2ccc(O)cc2)N(C)C(=O)[C@H](Cc2ccccc2)NC(=O)[C@H](CCCNC(=N)N)NC(=O)C(C)(C)NC(=O)[C@H]([C@@H](C)CC)NC1=O [compound 524]
pKd (SPR, hTfR, class symbols A-D, read-out: KD (column without head, continuation of the table series)): 6.00 to 7.00

CC[C@H](C)[C@@H]1NC(=O)[C@H](C2CCCCC2)NC(=O)[C@H](Cc2ccc(O)cc2)NC(=O)[C@H](Cc2ccc(O)cc2)NC(=O)[C@H](CC(N)=O)NC(=O)[C@H](Cc2c[nH]c3ccccc23)NC(=O)[C@H](C(C)C)NC(=O)[C@H](Cc2ccccc2)N(C)C(=O)[C@H](C(C)C)NC(=O)[C@H](C)NC(=O)CSC[C@@H](C(=O)NCCOCCOCCOCCOCCOCCOCCOCCOCCOCCOCCOCCOCCC(N)=O)NC(=O)[C@H](Cc2ccc(O)cc2)N(C)C(=O)[C@H](Cc2ccc(O)cc2)NC(=O)[C@H](CCCNC(=N)N)NC(=O)[C@H](CCCNC(=N)N)NC1=O [compound 283] ({CH2CO}-AV[NMeF]VWNYY[Chg]IRRY[NMeY]C[PEG12]-NH2; thioether N-15)
pKd [3]: 7.00 to 9.00

CC[C@H](C)[C@@H]1NC(=O)[C@H](Cc2ccc(OC)cc2)NC(=O)[C@H](Cc2ccc(O)cc2)NC(=O)[C@H](CC(N)=O)NC(=O)[C@H](Cc2c[nH]c3ccccc23)N(C)C(=O)[C@H](C(C)C)NC(=O)[C@H](Cc2cccc(Cl)c2)N(C)C(=O)[C@H](C(C)C)NC(=O)[C@H](C)NC(=O)CSC[C@@H](C(N)=O)NC(=O)[C@H](Cc2ccc(O)cc2)N(C)C(=O)[C@H](Cc2ccccc2)NC(=O)[C@H](CCC(=O)N[C@H](CCC(=O)O)C(=O)O)NC(=O)[C@H](CCCNC(=N)N)NC(=O)[C@H]([C@@H](C)CC)NC1=O [compound 385]
pKd (surface plasmon resonance, hTfR, read-out: KD value for hTfR by SPR (class symbol)): 7.00 to 9.00

CC[C@H](C)[C@@H]1NC(=O)[C@H](Cc2ccc(OC)cc2)NC(=O)[C@H](Cc2ccc(O)cc2)NC(=O)[C@H](CC(N)=O)NC(=O)[C@H](Cc2c[nH]c3ccccc23)N(C)C(=O)[C@H](C(C)C)NC(=O)[C@H](Cc2cccc(Cl)c2)N(C)C(=O)[C@H](C(C)C)NC(=O)[C@H](C)NC(=O)CSC[C@@H](C(=O)NCCOCCOCCOCCOCCC(N)=O)NC(=O)[C@H](Cc2ccc(O)cc2)N(C)C(=O)[C@H](Cc2ccccc2)NC(=O)[C@@H](CCCNC(=N)N)NC(=O)[C@H](CCCNC(=N)N)NC(=O)[C@H](CN)NC1=O [compound 336] ({CH2CO}-AV[NMePhe(3-Cl)]V[NMeW]NYY(Me)I[Dap]R[dR]F[NMeY]C[PEG4]-NH2; thioether N-15)
pKd (surface plasmon resonance, peptide vs hTfR, read-out: KD value, hTfR binding by SPR (class symbol)): 7.00 to 9.00

CC[C@H](C)[C@@H]1NC(=O)[C@H](C2CCCCC2)NC(=O)[C@H](Cc2ccc(O)cc2)NC(=O)[C@H](Cc2ccc(O)cc2)NC(=O)[C@H](CC(N)=O)NC(=O)[C@H](Cc2c[nH]c3ccccc23)NC(=O)[C@H](C2CCCCC2)NC(=O)[C@H](Cc2ccccc2)N(C)C(=O)[C@H](C(C)C)NC(=O)[C@H](C)NC(=O)CSC[C@@H](C(N)=O)NC(=O)[C@H](Cc2ccc(O)cc2)N(C)C(=O)[C@H](Cc2ccc(O)cc2)NC(=O)[C@H](CCCNC(=N)N)NC(=O)[C@H](CCCNC(=N)N)NC1=O [compound 267] ({CH2CO}-AV[NMeF][Chg]WNYY[Chg]IRRY[NMeY]C-NH2; thioether N-15)
pKd [3]: 6.00 to 7.00

CC[C@H](C)[C@@H]1NC(=O)[C@H](Cc2ccc(OC)cc2)NC(=O)[C@H](Cc2ccc(O)cc2)NC(=O)[C@H](CC(N)=O)NC(=O)[C@H](Cc2c[nH]c3ccccc23)N(C)C(=O)[C@H](C(C)C)NC(=O)[C@H](Cc2cccc(Cl)c2)N(C)C(=O)[C@H](C(C)C)NC(=O)[C@H](C)NC(=O)CSC[C@@H](C(=O)NCC(=O)NCC(=O)NCC(=O)NCC(=O)N[C@@H](CO)C(=O)N[C@@H](CO)C(=O)N[C@@H](CS)C(N)=O)NC(=O)[C@H](Cc2ccc(O)cc2)N(C)C(=O)[C@H](Cc2ccccc2)NC(=O)[C@@H](CCCNC(=N)N)NC(=O)[C@H](CN)NC(=O)[C@H]([C@@H](C)CC)NC1=O [compound 367]
pKd: 7.00 to 9.00

CC[C@H](C)[C@@H]1NC(=O)[C@H](Cc2ccc(O)cc2)NC(=O)[C@H](Cc2ccc(O)cc2)NC(=O)[C@H](CC(N)=O)NC(=O)[C@H](Cc2c[nH]c3ccccc23)NC(=O)[C@H](C(C)C)NC(=O)[C@H](Cc2ccccc2)NC(=O)[C@H](C(C)C)NC(=O)[C@H](C)NC(=O)CSC[C@@H](C(=O)NCCOCCOCCOCCOCCOCCOCCOCCOCCOCCOCCOCCOCCC(=O)N[C@@H](CCCCNC(=O)c2ccc(-c3c4ccc(=O)cc-4oc4cc(O)ccc34)c(C(=O)O)c2)C(N)=O)NC(=O)[C@H](CCC(=O)O)NC(=O)[C@H](CCCNC(=N)N)NC(=O)[C@@H]2CCCN2C(=O)[C@H](C(C)C)NC1=O [compound 211] ({CH2CO}-AVFVWNYYIVPREC[PEG12]K(X2)-NH2; thioether N-14)
pKd [2]: 7.00 to 9.00

CC[C@H](C)[C@@H]1NC(=O)[C@H](Cc2ccc(O)cc2)NC(=O)[C@H](Cc2ccc(O)cc2)NC(=O)[C@H](CC(N)=O)NC(=O)[C@H](Cc2c[nH]c3ccccc23)NC(=O)[C@H](C(C)C)NC(=O)[C@H](Cc2ccccc2)NC(=O)[C@H](C(C)C)NC(=O)[C@H](C)NC(=O)CSC[C@@H](C(=O)NCCOCCOCCOCCOCCOCCOCCOCCOCCOCCOCCOCCOCCC(=O)N[C@@H](CCCCNC(=O)c2ccc(-c3c4ccc(=O)cc-4oc4cc(O)ccc34)c(C(=O)O)c2)C(N)=O)NC(=O)[C@H](Cc2ccc(O)cc2)N(C)C(=O)[C@H](CO)NC(=O)[C@H](CCCNC(=N)N)NC(=O)[C@H](Cc2ccccc2)NC(=O)[C@H](CCCNC(=N)N)NC(=O)[C@H](CC(=O)O)NC(=O)[C@H]([C@@H](C)CC)NC1=O [compound 150] ({CH2CO}-AVFVWNYYIIDRFRS[NMeY]C[PEG12]K(X2)-NH2; thioether N-17)
pKd [1]: 7.00 to 9.00

CC[C@H](C)[C@@H]1NC(=O)[C@H](Cc2ccc(O)cc2)NC(=O)[C@H](Cc2ccc(O)cc2)NC(=O)[C@H](CC(N)=O)NC(=O)[C@H](Cc2c[nH]c3ccccc23)NC(=O)[C@H](C(C)C)NC(=O)[C@H](Cc2ccccc2)NC(=O)[C@H](C(C)C)NC(=O)[C@H](C)NC(=O)[C@H](CO)NC(=O)[C@H](C)NC(=O)CSC[C@@H](C(=O)NCCOCCOCCOCCOCCOCCOCCOCCOCCOCCOCCOCCOCCC(=O)N[C@@H](CCCCNC(=O)c2ccc(-c3c4ccc(=O)cc-4oc4cc(O)ccc34)c(C(=O)O)c2)C(N)=O)NC(=O)[C@H](C)NC(=O)[C@H](Cc2c[nH]c3ccccc23)NC(=O)[C@H](CCCNC(=N)N)NC(=O)[C@H](CC(N)=O)NC(=O)[C@H]([C@@H](C)CC)NC1=O [compound 155] ({CH2CO}-ASAVFVWNYYIINRWAC[PEG12]K(X2)-NH2; thioether N-17)
pKd [1]: 7.00 to 9.00

CC[C@H](C)[C@@H]1NC(=O)[C@H](Cc2ccc(OC)cc2)NC(=O)[C@H](Cc2ccc(O)cc2)NC(=O)[C@H](CC(N)=O)NC(=O)[C@H](Cc2c[nH]c3ccccc23)N(C)C(=O)[C@H](C(C)C)NC(=O)[C@H](Cc2cccc(Cl)c2)N(C)C(=O)[C@H](CCC(=O)O)NC(=O)[C@H](C)NC(=O)CSC[C@@H](C(N)=O)NC(=O)[C@H](CCC(=O)O)NC(=O)[C@H](CCCNC(=N)N)NC(=O)[C@@H]2CCCN2C(=O)[C@H](C(C)C)NC1=O [compound 206] ({CH2CO}-AE[NMePhe(3-Cl)]V[NMeW]NYY(Me)IVPREC-NH2; thioether N-14)
pKd [2]: 7.00 to 9.00
